Results taken from patent US20250270199A1, “THIAZOLE DERIVATIVES AND METHODS OF USING THE SAME” (Arkansas State University - Jonesboro, priority 2022, published 2025).
Converted amounts (≈) assume the structure as drawn. Read-outs that look alike come from different tables or passages of the source.

Legend:
[1] = tested on: E. faecalis ATCC 29212 (Efs 12); experiment: MIC, broth microdilution, Efs 12; assay type: cell-based; conditions: for MIC: Enterococcus faecalis, read-out: Minimum inhibitory concentration (MIC) Efs 12; for Minimum inhibitory concentration (MIC) Efs 12: Table 1, HT series
Procedure: (§1) The broth microdilution method was utilized to determine MIC values of novel thiazole derivatives against different clinically important Gram-positive bacteria according to the guidelines outlined by the Clinical and Laboratory Standards Institute (CLSI) as reported in our recent papers.^1-5 The starting concentration of compounds for MIC determination was 64 μg/mL serially diluted down the wells and the MIC values were recorded in duplicates in three independent experiments on different days.

[2] = tested on: S. aureus ATCC 25923 (Sa 23); experiment: MIC, broth microdilution, Sa 23; assay type: cell-based; conditions: for MIC: Staphylococcus aureus, read-out: Minimum inhibitory concentration (MIC) Sa 23; for Minimum inhibitory concentration (MIC) Sa 23: Table 1, HT series
Procedure: as §1

[3] = tested on: S. aureus ATCC 700699 (Sa 99); experiment: MIC, broth microdilution, Sa 99; assay type: cell-based; conditions: for MIC: Staphylococcus aureus, read-out: Minimum inhibitory concentration (MIC) Sa 99; for Minimum inhibitory concentration (MIC) Sa 99: Table 1, HT series
Procedure: as §1

[4] = tested on: E. faecium ATCC 700221 (Efm 21); experiment: MIC, broth microdilution, Efm 21; assay type: cell-based; conditions: Enterococcus faecium, read-out: Minimum inhibitory concentration (MIC) Efm 21
Procedure: as §1

[5] = tested on: S. epidermidis ATCC 700296 (Se); experiment: MIC, broth microdilution, Se; assay type: cell-based; conditions: Staphylococcus epidermidis, ATCC700296; Table 2, HTM series; read-out: Minimum inhibitory concentration (MIC) Se
Procedure: as §1

[6] = tested on: S. aureus subsp. aureus Rosenbach BAA-1717 (Sa USA 300); experiment: MIC, broth microdilution, Sa USA 300; assay type: cell-based; conditions: Staphylococcus aureus; Table 2, HTM series; read-out: Minimum inhibitory concentration (MIC) Sa USA 300
Procedure: as §1

[7] = tested on: E. faecalis ATCC 51299 (Efs 99); experiment: MIC, broth microdilution, Efs 99; assay type: cell-based; conditions: for MIC: Enterococcus faecalis, ATCC51299, read-out: Minimum inhibitory concentration (MIC) Efs 99
Procedure: as §1

[8] = tested on: S. aureus subsp. aureus Rosenbach ATCC 25904 (SA Newman); experiment: MIC, broth microdilution, SA Newman; assay type: cell-based; conditions: Staphylococcus aureus; Table 2, HTM series; read-out: Minimum inhibitory concentration (MIC) Sa Newman
Procedure: as §1

[9] = tested on: Sa UAMS-1 MRSA ATCC 49230 (Sa UAMS); experiment: MIC, broth microdilution, Sa UAMS; assay type: cell-based, S. aureus; conditions: Staphylococcus aureus; Table 2, HTM series; read-out: Minimum inhibitory concentration (MIC) Sa UAMS-1
Procedure: as §1

[10] = tested on: S. aureus ATCC BAA-2312 (Sa 12); experiment: MIC, broth microdilution, Sa 12; assay type: cell-based; conditions: Staphylococcus aureus, ATCCBAA2312; Table 2, HTM series; read-out: Minimum inhibitory concentration (MIC) Sa 12
Procedure: as §1

[11] = tested on: S. aureus ATCC 33591 (Sa 91); experiment: MIC, broth microdilution, Sa 91; assay type: cell-based; conditions: Staphylococcus aureus, ATCC33591; Table 2, HTM series; read-out: Minimum inhibitory concentration (MIC) Sa 91
Procedure: as §1

[12] = tested on: S. aureus ATCC 33592 (Sa 92); experiment: MIC, broth microdilution, Sa 92; assay type: cell-based; conditions: Staphylococcus aureus, ATCC33592; Table 2, HTM series; read-out: Minimum inhibitory concentration (MIC) Sa 92
Procedure: as §1

[13] = ATCC29212, Table 1, HT series, replicates from different days separated by comma
[14] = replicates from different days separated by comma
[15] = ATCC25923, Table 1, HT series, replicates from different days separated by comma
[16] = ATCC700699, Table 1, HT series, replicates from different days separated by comma
[17] = ATCC700221, Table 2, HTM series
[18] = ATCC700699, Table 2, HTM series

SMILES | MIC [1, 13] | Minimum inhibitory concentration (MIC) Efs 12 [1, 14] | MIC [2, 15] | Minimum inhibitory concentration (MIC) Sa 23 [2, 14] | MIC [3, 16] | Minimum inhibitory concentration (MIC) Sa 99 [3, 14] | MIC [4, 17] | MIC ([1]; ATCC29212, Table 2, HTM series) | MIC [5] | MIC ([2]; ATCC25923, Table 2, HTM series) | MIC [6] | MIC ([7]; Table 2, HTM series) | MIC [8] | MIC [9] | MIC [3, 18] | MIC [10] | MIC [11] | MIC [12] | also measured
Oc1ccc(-c2nc(C(F)(F)F)cs2)cc1O [Compound 1, 4-(4-(trifluoromethyl)thiazol-2-yl)benzene-1,2-diol] | > 32 µg/mL | >32, >32 μg/mL | > 32 µg/mL | >32, >32 μg/mL | > 32 µg/mL | >32, >32 μg/mL | – | – | – | – | – | – | – | – | – | – | – | – | –
COc1ccc(-c2csc(-c3ccc(O)c(O)c3)n2)cc1 [Compound 7, 4-(4-(4-methoxyphenyl)thiazol-2-yl)benzene-1,2-diol] | > 32 µg/mL | >32, >32 μg/mL | 16 µg/mL (≈ 53.4 µM) | 16, 16 μg/mL | 32 µg/mL (≈ 107 µM) | 32, 32 μg/mL | – | – | – | – | – | – | – | – | – | – | – | – | –
Oc1ccc(-c2nc(-c3ccncc3)cs2)cc1O [Compound 11, 4-(4-(pyridin-4-yl)thiazol-2-yl)benzene-1,2-diol] | > 32 µg/mL | >32, >32 μg/mL | > 32 µg/mL | >32, >32 μg/mL | > 32 µg/mL | >32, >32 μg/mL | – | – | – | – | – | – | – | – | – | – | – | – | –
N#Cc1ccc(-c2csc(-c3ccc(O)c(O)c3)n2)cc1 [Compound 12, 4-(2-(3,4-dihydroxyphenyl)thiazol-4-yl)benzonitrile] | > 32 µg/mL | >32, >32 μg/mL | > 32 µg/mL | >32, >32 μg/mL | > 32 µg/mL | >32, >32 μg/mL | – | – | – | – | – | – | – | – | – | – | – | – | –
O=C(O)c1ccc(-c2csc(-c3ccc(O)c(O)c3)n2)cc1 [Compound 13, 4-(2-(3,4-dihydroxyphenyl)thiazol-4-yl)benzoic acid] | > 32 µg/mL | >32, >32 μg/mL | > 32 µg/mL | >32, >32 μg/mL | > 32 µg/mL | >32, >32 μg/mL | – | – | – | – | – | – | – | – | – | – | – | – | –
Oc1ccc(-c2nc(-c3ccc(-c4ccccc4)cc3)cs2)cc1O [Compound 15, 4-(4-([1,1′-biphenyl]-4-yl)thiazol-2-yl)benzene-1,2-diol] | > 32 µg/mL | >32, >32 μg/mL | > 32 µg/mL | >32, >32 μg/mL | > 32 µg/mL | >32, >32 μg/mL | – | – | – | – | – | – | – | – | – | – | – | – | –
NC(=O)c1cc(-c2csc(-c3ccc(O)c(O)c3)n2)ccc1O [Compound 16, 5-(2-(3,4-dihydroxyphenyl)thiazol-4-yl)-2-hydroxybenzamide] | > 32 µg/mL | >32, >32 μg/mL | > 32 µg/mL | >32, >32 μg/mL | > 32 µg/mL | >32, >32 μg/mL | – | – | – | – | – | – | – | – | – | – | – | – | –
O=c1oc2ccccc2cc1-c1csc(-c2ccc(O)c(O)c2)n1 [Compound 17, 3-(2-(3,4-dihydroxyphenyl)thiazol-4-yl)-2H-chromen-2-one] | > 32 µg/mL | >32, >32 μg/mL | > 32 µg/mL | >32, >32 μg/mL | 16 µg/mL (≈ 47.4 µM) | 32 µg/mL (≈ 94.9 µM) | – | – | – | – | – | – | – | – | – | – | – | – | –
Oc1ccc(-c2csc(-c3cc(Cl)cc(Cl)c3)n2)cc1 [Compound 43, 4-(2-(3,5-dichlorophenyl)thiazol-4-yl)phenol] | – | – | – | – | – | – | 2 µg/mL (≈ 6.21 µM) | 2 µg/mL (≈ 6.21 µM) | 1 µg/mL (≈ 3.1 µM) | 1 µg/mL (≈ 3.1 µM) | 1 µg/mL (≈ 3.1 µM) | 2 µg/mL (≈ 6.21 µM) | 1 µg/mL (≈ 3.1 µM) | 1 µg/mL (≈ 3.1 µM) | 1 µg/mL (≈ 3.1 µM) | 1 µg/mL (≈ 3.1 µM) | 1 µg/mL (≈ 3.1 µM) | 1 µg/mL (≈ 3.1 µM) | –
Oc1ccc(-c2csc(-c3ccc(C(F)(F)F)cc3)n2)cc1O [Compound 47, 4-{2-[4-(trifluoromethyl)phenyl]-1,3-thiazol-4-yl}benzene-1,2-diol] | – | – | – | – | – | – | 8 µg/mL (≈ 23.7 µM) | 16 µg/mL (≈ 47.4 µM) | 8 µg/mL (≈ 23.7 µM) | 4 µg/mL (≈ 11.9 µM) | 8 µg/mL (≈ 23.7 µM) | 8 µg/mL (≈ 23.7 µM) | 8 µg/mL (≈ 23.7 µM) | 8 µg/mL (≈ 23.7 µM) | 8 µg/mL (≈ 23.7 µM) | 4 µg/mL (≈ 11.9 µM) | 8 µg/mL (≈ 23.7 µM) | 8 µg/mL (≈ 23.7 µM) | –
Oc1ccc(-c2csc(Nc3cc(C(F)(F)F)cc(C(F)(F)F)c3)n2)cc1O [Compound 58, 4-(2-((3,5-bis(trifluoromethyl)phenyl)amino)thiazol-4-yl)benzene-1,2-diol] | – | – | – | – | – | – | 4 µg/mL (≈ 9.52 µM) | 4 µg/mL (≈ 9.52 µM) | 4 µg/mL (≈ 9.52 µM) | 4 µg/mL (≈ 9.52 µM) | 4 µg/mL (≈ 9.52 µM) | 4 µg/mL (≈ 9.52 µM) | 4 µg/mL (≈ 9.52 µM) | 4 µg/mL (≈ 9.52 µM) | 4 µg/mL (≈ 9.52 µM) | 4 µg/mL (≈ 9.52 µM) | 4 µg/mL (≈ 9.52 µM) | 4 µg/mL (≈ 9.52 µM) | –
Oc1ccc(-c2csc(Nc3cc(C(F)(F)F)cc(C(F)(F)F)c3)n2)cc1 [Compound 59, 4-(2-((3,5-bis(trifluoromethyl)phenyl)amino)thiazol-4-yl)phenol] | – | – | – | – | – | – | 1 µg/mL (≈ 2.47 µM) | 1 µg/mL (≈ 2.47 µM) | 1 µg/mL (≈ 2.47 µM) | 1 µg/mL (≈ 2.47 µM) | 1 µg/mL (≈ 2.47 µM) | 1 µg/mL (≈ 2.47 µM) | 1 µg/mL (≈ 2.47 µM) | 2 µg/mL (≈ 4.95 µM) | 1 µg/mL (≈ 2.47 µM) | 1 µg/mL (≈ 2.47 µM) | 1 µg/mL (≈ 2.47 µM) | 1 µg/mL (≈ 2.47 µM) | –
CCCCCCCCCC(=O)N[C@@H](Cc1c[nH]c2ccccc12)C(=O)N[C@H](CC(N)=O)C(=O)N[C@@H](CC(=O)O)C(=O)N[C@@H]1C(=O)NCC(=O)N[C@@H](CCCN)C(=O)N[C@@H](CC(=O)O)C(=O)N[C@H](C)C(=O)N[C@@H](CC(=O)O)C(=O)NCC(=O)N[C@H](CO)C(=O)N[C@@H]([C@H](C)CC(=O)O)C(=O)N[C@@H](CC(=O)c2ccccc2N)C(=O)O[C@@H]1C [Dapt., Daptomycin, reference compound] | – | – | – | – | – | – | 1 µg/mL (≈ 0.617 µM) | – | – | – | – | – | – | – | – | – | – | – | MIC ([4]; ATCC700221, Table 1, HT series): 4 µg/mL (≈ 2.47 µM); MIC ([7]; Table 1, HT series): 1 µg/mL (≈ 0.617 µM); Minimum inhibitory concentration (MIC) Efs 99 ([7]; Table 2, HTM series): 1 µg/mL (≈ 0.617 µM)
